In US20250114374A1, “BCL-2 INHIBITORS” (Newave Pharmaceutical Inc., priority 2021, published 2025) one finds IC50 data, which are given here for 12 molecules.

By IC50 is commonly meant the concentration that gives 50% inhibition.

The first assay deals with RS4; 11 with G101V mutation. In words: In vitro anti-proliferation assay (ATPlite luminescence) in BCL-2-dependent ALL cell line RS4;11 with G101V mutation. Format: cell-based. The note with it: Homo sapiens, RS4-11, 72 h; read-out: RS411-G101V IC50. Put shortly: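 RS4;11 G101V cells at about 1×10^4 per well were exposed to a range of compound concentrations for about 72 h in medium with 10% FBS. Cellular ATP was measured by ATPlite luminescence after lysis, and IC50 was derived from the dose-response.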
A general note: In ATP-based viability assays light output follows the ATP content of the culture.
Turning to `CC(C)Oc1ccccc1[C@@H]1CN([C@H]2COCc3cc(F)c(F)cc32)CCN1C1CC2(CCN(c3ccc(C(=O)NS(=O)(=O)c4cc5c(c([N+](=O)[O-])c4)N[C@H](C4CCOCC4)CO5)c(N4c5cc6cc[nH]c6nc5O[C@H]5COCC[C@@H]54)c3)CC2)C1` [Example 216, 4-(2-((R)-4-((R)-6,7-difluoroisochroman-4-yl)-2-(2-isopropoxyphenyl)piperazin-1-yl)-7-azaspiro[3.5]nonan-7-yl)-N-(((R)-5-nitro-3-(tetrahydro-2H-pyran-4-yl)-3,4-dihydro-2H-benzo[b][1,4]oxazin-7-yl)sulfonyl)-2-((5aS,9aR)-6,7,9,9a-tetrahydro-1H-pyrano[3,4-b]pyrrolo[3′,2′:5,6]pyrido[3,2-e][1,4]oxazin-5(5aH)-yl)benzamide], the half-maximal inhibitory concentration (IC50) came out at 30.6 nM. The same measure, in the same setting: then `CC(C)Oc1ccccc1[C@@H]1CN([C@@H]2COCc3c(F)cc(F)cc32)CCN1C1CC2(CCN(c3ccc(C(=O)NS(=O)(=O)c4cc5c(c([N+](=O)[O-])c4)N[C@H](C4CCOCC4)CO5)c(N4c5cc6cc[nH]c6nc5O[C@H]5COCC[C@@H]54)c3)CC2)C1` [Example 231, 4-(2-((R)-4-((S)-6,8-difluoroisochroman-4-yl)-2-(2-isopropoxyphenyl)piperazin-1-yl)-7-azaspiro[3.5]nonan-7-yl)-N-(((R)-5-nitro-3-(tetrahydro-2H-pyran-4-yl)-3,4-dihydro-2H-benzo[b][1,4]oxazin-7-yl)sulfonyl)-2-((5aS,9aR)-6,7,9,9a-tetrahydro-1H-pyrano[3,4-b]pyrrolo[3′,2′:5,6]pyrido[3,2-e][1,4]oxazin-5(5aH)-yl)benzamide], with 94.7 nM; and `CC(C)Oc1ccccc1[C@@H]1CN([C@@H]2CCOc3nc(N4CCOC[C@@H]4C)c(F)cc32)CCN1C1CC2(CCN(c3ccc(C(=O)NS(=O)(=O)c4cc5c(c([N+](=O)[O-])c4)N[C@H](C4CCOCC4)CO5)c(N4c5cc6cc[nH]c6nc5O[C@H]5COCC[C@@H]54)c3)CC2)C1` [Example 219, 4-(2-((R)-4-((R)-6-fluoro-7-((S)-3-methylmorpholino)-3,4-dihydro-2H-pyrano[2,3-b]pyridin-4-yl)-2-(2-isopropoxyphenyl)piperazin-1-yl)-7-azaspiro[3.5]nonan-7-yl)-N-(((R)-5-nitro-3-(tetrahydro-2H-pyran-4-yl)-3,4-dihydro-2H-benzo[b][1,4]oxazin-7-yl)sulfonyl)-2-((5aS,9aR)-6,7,9,9a-tetrahydro-1H-pyrano[3,4-b]pyrrolo[3′,2′:5,6]pyrido[3,2-e][1,4]oxazin-5(5aH)-yl)benzamide], with 56.3 nM.

Staying with this assay, now noted: cellular anti-proliferative IC50, about 72 hours, medium with 10% FBS, ATPlite; read-out: RS411-G101V IC50.
In the case of `Cc1ccccc1[C@@H]1CN(C2CCC(C)(O)CC2)CCN1C1CC2(CCN(c3ccc(C(=O)NS(=O)(=O)c4cc5c(c([N+](=O)[O-])c4)N[C@H](C4CCOCC4)CO5)c(N4c5cc6cc[nH]c6nc5O[C@H]5COCC[C@@H]54)c3)CC2)C1` (stereo partly drawn) [Example 199, 4-(2-((R)-4-((1r,4R)-4-hydroxy-4-methylcyclohexyl)-2-(o-tolyl)piperazin-1-yl)-7-azaspiro[3.5]nonan-7-yl)-N-(((R)-5-nitro-3-(tetrahydro-2H-pyran-4-yl)-3,4-dihydro-2H-benzo[b][1,4]oxazin-7-yl)sulfonyl)-2-((5aS,9aR)-6,7,9,9a-tetrahydro-1H-pyrano[3,4-b]pyrrolo[3′,2′:5,6]pyrido[3,2-e][1,4]oxazin-5(5aH)-yl)benzamide], the 50% inhibitory concentration (IC50) came to 50.4 nM. Same read-out and setting: for `COc1cc(CN2CCN(C3CC4(CCN(c5ccc(C(=O)NS(=O)(=O)c6ccc(NCC7CCC(C)(O)CC7)c([N+](=O)[O-])c6)c(N6c7cc8cc[nH]c8nc7O[C@H]7COCC[C@@H]76)c5)CC4)C3)[C@H](c3ccccc3C)C2)cnc1OC` (stereo partly drawn) [Example 118, 4-{2-[(2R)-4-[(5,6-dimethoxypyridin-3-yl)methyl]-2-(2-methylphenyl)piperazin-1-yl]-7-azaspiro[3.5]nonan-7-yl}-2-[(3R,8S)-2,5-dioxa-9,15,17-triazatetracyclo[8.7.0.0^{3,8}.0^{12,16}]heptadeca-1(10),11,13,16-tetraen-9-yl]-N-[3-nitro-4-({[(1r,4r)-4-hydroxy-4-methylcyclohexyl]methyl}amino)benzenesulfonyl]benzamide] the value was 4.4 nM. `Cc1ccccc1[C@@H]1CN(C2CCC(N3CCOC[C@@H]3C)CC2)CCN1C1CC2(CCN(c3ccc(C(=O)NS(=O)(=O)c4cc5c(c([N+](=O)[O-])c4)N[C@H](C4CCOCC4)CO5)c(N4c5cc6cc[nH]c6nc5O[C@H]5COCC[C@@H]54)c3)CC2)C1` (stereo partly drawn) [Example 204, 4-(2-((R)-4-((1R,4S)-4-((S)-3-methylmorpholino)cyclohexyl)-2-(o-tolyl)piperazin-1-yl)-7-azaspiro[3.5]nonan-7-yl)-N-(((R)-5-nitro-3-(tetrahydro-2H-pyran-4-yl)-3,4-dihydro-2H-benzo[b][1,4]oxazin-7-yl)sulfonyl)-2-((5aS,9aR)-6,7,9,9a-tetrahydro-1H-pyrano[3,4-b]pyrrolo[3′,2′:5,6]pyrido[3,2-e][1,4]oxazin-5(5aH)-yl)benzamide]: the IC50 was 27.5 nM. For `CC(C)Oc1ccccc1[C@@H]1CN([C@@H]2COCc3c2ccc(F)c3F)CCN1C1CC2(CCN(c3ccc(C(=O)NS(=O)(=O)c4cc5c(c([N+](=O)[O-])c4)N[C@H](C4CCOCC4)CO5)c(N4c5cc6cc[nH]c6nc5O[C@H]5COCC[C@@H]54)c3)CC2)C1` [Example 248, 4-{2-[(2R)-4-[(4S)-7,8-difluoro-3,4-dihydro-1H-2-benzopyran-4-yl]-2-(2-isopropoxyphenyl)piperazin-1-yl]-7-azaspiro[3.5]nonan-7-yl}-2-[(3R,8S)-2,5-dioxa-9,15,17-triazatetracyclo[8.7.0.0^{3,8}.0^{12,16}]heptadeca-1(10),11,13,16-tetraen-9-yl]-N-[(3R)-5-nitro-3-(oxan-4-yl)-3,4-dihydro-2H-1,4-benzoxazin-7-ylsulfonyl]benzamide], the half-inhibitory concentration (IC50) amounted to 9.68 nM. For the molecule `CC(C)Oc1ccccc1[C@@H]1CN(Cc2ccc(C(C)C)nc2)CCN1C1CC2(CCN(c3ccc(C(=O)NS(=O)(=O)c4cc5c(c([N+](=O)[O-])c4)N[C@H](C4CCOCC4)CO5)c(N4c5cc6cc[nH]c6nc5O[C@H]5COCC[C@@H]54)c3)CC2)C1` [Example 255, 2-[(3R,8S)-2,5-dioxa-9,15,17-triazatetracyclo[8.7.0.0^{3,8}.0^{12,16}]heptadeca-1(10),11,13,16-tetraen-9-yl]-4-{2-[(2R)-2-(2-isopropoxyphenyl)-4-[(6-isopropylpyridin-3-yl)methyl]piperazin-1-yl]-7-azaspiro[3.5]nonan-7-yl}-N-[(3R)-5-nitro-3-(oxan-4-yl)-3,4-dihydro-2H-1,4-benzoxazin-7-ylsulfonyl]benzamide], the IC50 was determined as 6.39 nM. On the same count and under the same terms, for `Cc1ccccc1[C@@H]1CN(C2CCOCC2)CCN1C1CC2(CCN(c3ccc(C(=O)NS(=O)(=O)c4ccc(NCC5CCC(C)(O)CC5)c([N+](=O)[O-])c4)c(N4c5cc6cc[nH]c6nc5O[C@H]5COCC[C@@H]54)c3)CC2)C1` (stereo partly drawn) [Example 114, 2-[(3R,8S)-2,5-dioxa-9,15,17-triazatetracyclo[8.7.0.0^{3,8}.0^{12,16}]heptadeca-1(10),11,13,16-tetraen-9-yl]-4-{2-[(2R)-2-(2-methylphenyl)-4-(oxan-4-yl)piperazin-1-yl]-7-azaspiro[3.5]nonan-7-yl}-N-[3-nitro-4-({[(1r,4r)-4-hydroxy-4-methylcyclohexyl]methyl}amino)benzenesulfonyl]benzamide] the value was 11.8 nM; for `Cc1ccccc1[C@@H]1CN(Cc2cnc3c(c2)OCCO3)CCN1C1CC2(CCN(c3ccc(C(=O)NS(=O)(=O)c4ccc(NCC5CCC(C)(O)CC5)c([N+](=O)[O-])c4)c(N4c5cc6cc[nH]c6nc5O[C@H]5COCC[C@@H]54)c3)CC2)C1` (stereo partly drawn) [Example 125, 2-[(3R,8S)-2,5-dioxa-9,15,17-triazatetracyclo[8.7.0.0^{3,8}.0^{12,16}]heptadeca-1(10),11,13,16-tetraen-9-yl]-4-{2-[(2R)-4-{2H,3H-[1,4]dioxino[2,3-b]pyridin-7-ylmethyl}-2-(2-methylphenyl)piperazin-1-yl]-7-azaspiro[3.5]nonan-7-yl}-N-[3-nitro-4-({[(1r,4r)-4-hydroxy-4-methylcyclohexyl]methyl}amino)benzenesulfonyl]benzamide], 13.9 nM.

As to `COc1cc(CN2CCN(C3CC4(CCN(c5ccc(C(=O)NS(=O)(=O)c6ccc(NCC7CCC(C)(O)CC7)c([N+](=O)[O-])c6)c(N6c7cc8cc[nH]c8nc7O[C@H]7COCC[C@@H]76)c5)CC4)C3)[C@@H](c3ccccc3OC(C)C)C2)cnc1N1CCOC[C@@H]1C` (stereo partly drawn) [Example 126, N-((4-((((1r,4r)-4-hydroxy-4-methylcyclohexyl)methyl)amino)-3-nitrophenyl)sulfonyl)-4-(2-((S)-2-(2-isopropoxyphenyl)-4-((5-methoxy-6-((S)-3-methylmorpholino)pyridin-3-yl)methyl)piperazin-1-yl)-7-azaspiro[3.5]nonan-7-yl)-2-((5aS,9aR)-6,7,9,9a-tetrahydro-1H-pyrano[3,4-b]pyrrolo[3′,2′:5,6]pyrido[3,2-e][1,4]oxazin-5(5aH)-yl)benzamide], the IC50 is 11.7 nM. Turning to `COc1cc(CN2CCN(C3CC4(CCN(c5ccc(C(=O)NS(=O)(=O)c6ccc(NCC7CCC(C)(O)CC7)c([N+](=O)[O-])c6)c(N6c7cc8cc[nH]c8nc7O[C@H]7COCC[C@@H]76)c5)CC4)C3)[C@@H](c3ccccc3C)C2)cnc1OC` (stereo partly drawn) [Example 149, 4-(2-((S)-4-((5,6-dimethoxypyridin-3-yl)methyl)-2-(o-tolyl)piperazin-1-yl)-7-azaspiro[3.5]nonan-7-yl)-N-((4-((((1r,4r)-4-hydroxy-4-methylcyclohexyl)methyl)amino)-3-nitrophenyl)sulfonyl)-2-((5aS,9aR)-6,7,9,9a-tetrahydro-1H-pyrano[3,4-b]pyrrolo[3′,2′:5,6]pyrido[3,2-e][1,4]oxazin-5(5aH)-yl)benzamide], the concentration for half-maximal inhibition (IC50) stood at 28.3 nM.
